For this test, the species on record is Rattus norvegicus. Description: Antiobesity activity in Sprague-Dawley rat assessed as reduction in cumulative food intake. The format is functional, organism-based.

Active and inactive are the calls of the source. The calls are words filed in the database; no cut-off is given here.

`FC(F)(F)CCc1ccnc2c1CC[C@@H]1CNCCN21`: the result was Active.

The values are drawn from ChEMBL document CHEMBL4196226, “5-HT2C Receptor Agonists for the Treatment of Obesity” (ACS Med Chem Lett, 2018).
